Test results as given in paper PMC9024977, “In Vitro and In Silico Studies of Human Tyrosyl-DNA Phosphodiesterase 1 (Tdp1) Inhibition by Stereoisomeric Forms of Lipophilic Nucleosides: The Role of Carbohydrate Stereochemistry in Ligand-Enzyme Interactions” (Molecules, 2022).

Key:
[1] = molecular target: T1, Tdp1 (Homo sapiens, UniProt Q9NUW8); assay: Real-time detection of Tdp1 activity (oligonucleotide biosensor, FAM/BHQ1); format: biochemical; design: key to Eut/Dis: The stereoisomer with the greater inhibitory activity is termed the eutomer (Eut); that with the lower activity, the distomer (Dis); details: for IC50: 1.5 nM Tdp1, 50 nM biosensor, 26 °C, three independent experiments; for ER (eudismic ratio): IC50 (Eutomer)/IC50 (Distomer); for ER (eudismic ratio) / EI (eudismic index): per stereoisomer pair; for Eut/Dis: eutomer or distomer within the stereoisomer pair; for EI (eudismic index): −logER
T1 sequence (Q9NUW8 whole entry): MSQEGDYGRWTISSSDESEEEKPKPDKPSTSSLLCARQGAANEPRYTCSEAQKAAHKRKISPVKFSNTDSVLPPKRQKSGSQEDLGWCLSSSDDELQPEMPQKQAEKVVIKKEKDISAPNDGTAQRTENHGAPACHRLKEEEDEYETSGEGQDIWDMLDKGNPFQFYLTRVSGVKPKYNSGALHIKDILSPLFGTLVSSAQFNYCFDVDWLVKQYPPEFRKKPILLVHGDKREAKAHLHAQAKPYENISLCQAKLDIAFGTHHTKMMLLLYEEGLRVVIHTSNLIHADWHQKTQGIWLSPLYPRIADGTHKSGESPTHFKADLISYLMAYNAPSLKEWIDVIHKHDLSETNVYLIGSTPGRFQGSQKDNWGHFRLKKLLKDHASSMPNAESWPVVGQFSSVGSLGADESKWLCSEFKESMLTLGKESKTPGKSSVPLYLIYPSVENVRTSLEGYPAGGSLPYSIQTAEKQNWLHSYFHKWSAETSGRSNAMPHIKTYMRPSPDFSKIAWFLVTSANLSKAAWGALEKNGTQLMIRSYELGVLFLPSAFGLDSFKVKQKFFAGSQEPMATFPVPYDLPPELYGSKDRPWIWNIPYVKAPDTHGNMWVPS
Protocol: The measurement of Tdp1 inhibition was performed using a real-time oligonucleotide biosensor based on the capability of Tdp1 to remove fluorophore quenchers from the 3′-end of DNA [31]. The single-stranded Tdp1 substrate was a 16-mer oligonucleotide containing a 5′-FAM (6-carboxyfluorescein) fluorophore donor and a 3′-BHQ1 quencher (black hole quencher 1). When a quencher is removed by Tdp1, FAM fluorescence flares up and can be detected by a fluorimeter. In the presence of an inhibitor, fluorescence intensity decreases. The obtained Tdp1 activity versus inhibitor concentration curves were used to calculate IC50 values. We also studied other structurally related compounds, such as optically active benzoylated arabinofuranose and ribofuranose to ascertain the influence of a heterocyclic base on biological activity (Table 1).
Real-time detection of Tdp1 activity was reported in our previous work. This approach involves measuring the fluorescence intensity during the reaction of quencher removal from a fluorophore-quencher coupled to a DNA-oligonucleotide catalyzed by Tdp1 in the presence of inhibitor (the control samples contained 1% DMSO). Reaction mixtures ([…]) contained Tdp1 buffer (50mM Tris-HCl, pH 8.0, 50mM NaCl, 7mM β-mercaptoethanol), 50 nM biosensor, testable inhibitor, and purified Tdp1 (1.5 nM). The biosensor was a single-stranded oligonucleotide (5′-[FAM] AAC GTC AGGGTC TTC C [BHQ]-3′) containing a fluorophore at the 5′-end (5,6-FAM) and black hole quencher 1 (BHQ) at the 3′-end that was synthesized in the Laboratory of nucleic acid chemistry at the Institute of Chemical Biology and Fundamental Medicine, Novosibirsk, Russia. The reactions were incubated at a constant temperature of 26 °C in a POLARstar OPTIMA fluorimeter (BMG LABTECH, GmbH, Soest, Germany) set to measure fluorescence every 55 s (Ex485/Em520 nm) during the linear phase (from 0 to 8 min). The values for half maximal inhibitory concentration (IC50) were determined using a six-point concentration response curve in three independent experiments and calculated using MARS Data Analysis 2.0 (BMG LABTECH, Soest, Germany).

[2] = system: recombinant human Tdp1; assay: Steady-state kinetic analysis of Tdp1 enzymatic reaction; format: biochemical; details: from dependence of Vmax and KM on inhibitor concentration
Protocol: To confirm the interaction model obtained by molecular docking, the type of inhibition by compounds 3D, 3L, 7R, and 7S was determined by a steady-state kinetic assay. During the experiment, dependence curves of the enzymatic reaction rate (V) on substrate concentration (S) in the presence of different concentrations of the inhibitors were obtained (Figures S36–S39 in Supplementary Materials). The apparent Michaelis constant (KM) and the maximum reaction rate (Vmax) were calculated according to the Michaelis–Menten equation. Conclusions about the type of inhibition were made from the characteristics of the dependence of Vmax and KM on the concentration of the inhibitor.
To determine the apparent maximum rate of enzymatic reaction (Vmax), Michaelis constant (KM), and possible inhibition mechanism, steady-state kinetic experiments were carried out at five fixed concentrations for the substrate with various inhibitor concentrations. The standard reaction mixtures (200 μL) contained 50 nM, 100 nM, 200 nM, 500 nM, or 1000 nM substrate, testable inhibitor, 1.5 nM recombinant human Tdp1, and reaction buffer components (50 mM Tris-HCl, pH 8.0, 50 mM NaCl, 7 mM β-mercaptoethanol). After the addition of the enzyme, the reaction mixtures were incubated at a constant temperature of 26 °C and measured in a POLARstar OPTIMA fluorimeter (BMG LABTECH, GmbH) set to measure fluorescence every 55 s (Ex485/Em520 nm) during the linear phase (0 to 8 min). The initial data (kinetic curves) were obtained in three independent experiments and statistically processed with OriginPro 8.6.0 software.

[3] = molecular target: T1, Tdp1; assay: Fluorescence anisotropy assay; format: binding; details: FAM-labeled DNA with Tdp1, increasing inhibitor concentration
Text: To clarify the mechanism of action of this compound, the change in the fluorescence anisotropy during the Tdp1 catalytic reaction was studied. This method is based on the ability of fluorescent molecules to be excited by plane-polarized light when their dipole moment is parallel to the plane of polarization. If such a molecule is unable to rotate in space, then the emitted light will be polarized following excitation. Conversely, if the molecule can rotate, then the emitted light is “depolarized”. The minimum anisotropy value corresponds to FAM-labeled DNA (Figure S40, gray graph). When Tdp1 was added, the anisotropy increased due to the binding of the DNA by the enzyme, which prevents its free rotation (Figure S40, red graph).
This means that the inhibitor can bind to the active site of Tdp1 instead of the DNA substrate, thereby reducing the activity of the enzyme by competitive inhibition. This is consistent with the data obtained in the kinetic studies. […] Thus, a competitive component is present when Tdp1 is inhibited by compound 7R; however, this process is more complicated and requires further study with other methods.

SMILES | IC50 [1] | ER (eudismic ratio) [1] | Eut/Dis [1] | EI (eudismic index) [1] | type of inhibition [2] | change in fluorescence anisotropy [3]
CO[C@H]1O[C@H](COC(=O)c2ccccc2)[C@@H](OC(=O)c2ccccc2)[C@@H]1OC(=O)c1ccccc1 [Compound 1D, 1-O-methyl-2,3,5-tri-O-benzoyl-α-D-arabinofuranose] | 2.3 ± 0.6 µM | 0.343 | Eut | 0.465 | – | –
CO[C@@H]1O[C@@H](COC(=O)c2ccccc2)[C@H](OC(=O)c2ccccc2)[C@H]1OC(=O)c1ccccc1 [Compound 1L, 1-O-methyl-2,3,5-tri-O-benzoyl-α-L-arabinofuranose] | 6.7 ± 1.9 µM | 0.343 | Dis | 0.465 | – | –
CC(=O)O[C@@H]1O[C@H](COC(=O)c2ccccc2)[C@@H](OC(=O)c2ccccc2)[C@H]1OC(=O)c1ccccc1 [Compound 2D, 1-O-Acetyl-2,3,5-tri-O-benzoyl-β-D-ribofuranose] | – | 0.808 | Eut | 0.09 | – | –
CC(=O)O[C@H]1O[C@@H](COC(=O)c2ccccc2)[C@H](OC(=O)c2ccccc2)[C@@H]1OC(=O)c1ccccc1 [Compound 2L] | 5.2 ± 0.2 µM | 0.808 | Dis | 0.09 | – | –
O=C(OC[C@H]1O[C@@H](n2ccc(=O)[nH]c2=O)[C@H](OC(=O)c2ccccc2)[C@@H]1OC(=O)c1ccccc1)c1ccccc1 [Compound 3D, 2′,3′,5′-tri-O-benzoyl-D-uridine] | 3.8 ± 0.4 µM | 0.745 | Eut | 0.128 | uncompetitive | –
O=C(OC[C@@H]1O[C@H](n2ccc(=O)[nH]c2=O)[C@@H](OC(=O)c2ccccc2)[C@H]1OC(=O)c1ccccc1)c1ccccc1 [Compound 3L, 2′,3′,5′-tri-O-benzoyl-L-uridine] | 5.1 ± 0.1 µM | 0.745 | Dis | 0.128 | uncompetitive | –
Cc1cn([C@@H]2O[C@H](COC(=O)c3ccccc3)[C@@H](OC(=O)c3ccccc3)[C@H]2OC(=O)c2ccccc2)c(=O)[nH]c1=O [Compound 4D, 1-(2,3,5-Tri-O-benzoyl-β-D-ribofuranosyl)thymine] | – | 0.108 | Eut | 0.967 | – | –
Cc1cn([C@H]2O[C@@H](COC(=O)c3ccccc3)[C@H](OC(=O)c3ccccc3)[C@@H]2OC(=O)c2ccccc2)c(=O)[nH]c1=O [Compound 4L, 2′,3′,5′-tri-O-benzoyl-L-ribothymidine] | 25 ± 1 µM | 0.108 | Dis | 0.967 | – | –
C[C@@H](OC(=O)c1ccccc1)[C@H]1O[C@@H](n2c(=O)cc[nH]c2=O)[C@H](OC(=O)c2ccccc2)[C@@H]1OC(=O)c1ccccc1 [Compound 5R, 3-[5(R)-C-methyl-2,3,5-O-tribenzoyl-β-D-ribofuranosyl]uracil] | 3.1 ± 0.2 µM | 0.871 | Dis | 0.06 | – | –
C[C@H](OC(=O)c1ccccc1)[C@H]1O[C@@H](n2c(=O)cc[nH]c2=O)[C@H](OC(=O)c2ccccc2)[C@@H]1OC(=O)c1ccccc1 [Compound 5S, 3-[5(S)-C-methyl-2,3,5-tri-O-benzoyl-β-D-ribofuranosyl]uracil] | 2.7 ± 0.2 µM | 0.871 | Eut | 0.06 | – | –
C[C@@H](OC(=O)c1ccccc1)[C@H]1O[C@@H](n2ccc(N)nc2=O)[C@H](OC(=O)c2ccccc2)[C@@H]1OC(=O)c1ccccc1 [Compound 6R, 1-[5(R)-C-methyl-2,3,5-tri-O-benzoyl-β-D-ribofuranosyl]cytosine] | 5.8 ± 0.5 µM | 0.896 | Dis | 0.048 | – | –
C[C@H](OC(=O)c1ccccc1)[C@H]1O[C@@H](n2ccc(N)nc2=O)[C@H](OC(=O)c2ccccc2)[C@@H]1OC(=O)c1ccccc1 [Compound 6S, 1-[5(S)-C-methyl-2,3,5-tri-O-benzoyl-β-D-ribofuranosyl]cytosine] | 5.2 ± 0.8 µM | 0.896 | Eut | 0.048 | – | –
C[C@@H](OC(=O)c1ccccc1)[C@H]1O[C@@H](n2cnc3c(NC(=O)c4ccccc4)ncnc32)[C@H](OC(=O)c2ccccc2)[C@@H]1OC(=O)c1ccccc1 [Compound 7R, 5′(R)-C-methyl-2′,3′,5′-tri-O-benzoyl-N^6-benzoyladenosine] | 4.4 ± 0.8 µM | 0.956 | Eut | 0.0193 | uncompetitive at low inhibitor concentrations and mixed at high | –
C[C@H](OC(=O)c1ccccc1)[C@H]1O[C@@H](n2cnc3c(NC(=O)c4ccccc4)ncnc32)[C@H](OC(=O)c2ccccc2)[C@@H]1OC(=O)c1ccccc1 [Compound 7S, 5′(S)-C-methyl-2′,3′,5′-tri-O-benzoyl-N^6-benzoyladenosine] | 4.6 ± 0.9 µM | 0.956 | Dis | 0.0193 | competitive | decreased with an increasing concentration of the inhibitor
O=c1ccn([C@@H]2O[C@H](CO)[C@@H](O)[C@H]2O)c(=O)[nH]1 [Compound 8D] | > 50 µM | – | – | – | – | –
O=c1ccn([C@H]2O[C@@H](CO)[C@H](O)[C@@H]2O)c(=O)[nH]1 [Compound 8L] | > 50 µM | – | – | – | – | –
